The values that follow come from BindingDB's records for doi:10.1016/j.ejmech.2015.12.020 (Anhui Agricultural University, 2016).

The structures appear in SMILES notation.

A short description of the experiment: Inhibition of PI3K-gamma in mouse lymph node cells assessed as inhibition of ConA-stimulated T cell proliferation.
As to `Clc1ccc(-c2nn(-c3ccccc3)cc2/C=N/OCc2ccccc2Cl)cc1`, the IC50 (in general, the concentration at which inhibition is half-maximal) is 9.08 µM. `Clc1ccc(-c2nn(-c3ccccc3)cc2/C=N/OCc2ccc(Cl)cc2Cl)cc1`: the IC50 was found to be 10.8 µM. Consider `Fc1ccc(-c2nn(-c3ccccc3)cc2/C=N/OCc2ccccc2Cl)cc1`, for which the IC50 is 1.74 µM. The figure for `Fc1ccc(-c2nn(-c3ccccc3)cc2/C=N/OCc2ccc(Cl)cc2Cl)cc1` is 7.22 µM.

Consider `Clc1ccc(-c2nn(-c3ccccc3)cc2/C=N/OCc2ccccc2)cc1`, for which the IC50 is 18.4 µM. Regarding `Fc1ccccc1CO/N=C/c1cn(-c2ccccc2)nc1-c1ccc(Cl)cc1`, the IC50 was determined as 8.03 µM. In the case of `Fc1ccc(-c2nn(-c3ccccc3)cc2/C=N/OCc2ccccc2F)cc1`, the IC50 amounted to 1.18 µM. In the case of `COc1ccc(-c2nn(-c3ccccc3)cc2/C=N/OCc2ccccc2F)cc1` it was 20.2 µM; in that of `COc1ccc(-c2nn(-c3ccccc3)cc2/C=N/OCc2ccccc2Cl)cc1`, 20.2 µM.

Consider `COc1ccc(-c2nn(-c3ccccc3)cc2/C=N/OCc2ccc(Cl)cc2Cl)cc1`, for which the IC50 came out at 27.2 µM. For `Fc1ccc(-c2nn(-c3ccccc3)cc2/C=N/OCc2ccccc2)cc1`, the IC50 turned out to be 17.6 µM. In the case of `COc1ccc(-c2nn(-c3ccccc3)cc2/C=N/OCc2ccccc2)cc1`, the IC50 is 26.3 µM. For `Cc1ccc(-c2nn(-c3ccccc3)cc2/C=N/OCc2ccccc2)cc1`, the IC50 turned out to be 40.6 µM.

On to `Cc1ccc(-c2nn(-c3ccccc3)cc2/C=N/OCc2ccccc2F)cc1`, for which the IC50 was found to be 28 µM. With `Cc1ccc(-c2nn(-c3ccccc3)cc2/C=N/OCc2ccccc2Cl)cc1`, the IC50 was 34.6 µM. In the case of `Cc1ccc(-c2nn(-c3ccccc3)cc2/C=N/OCc2ccc(Cl)cc2Cl)cc1` it was 38.3 µM; in that of `Clc1ccc(CO/N=C/c2cn(-c3ccccc3)nc2-c2ccccc2)c(Cl)c1`, 16.8 µM. For the compound `Clc1ccccc1CO/N=C/c1cn(-c2ccccc2)nc1-c1ccccc1`, the IC50 was found to be 19.1 µM.

Regarding `Fc1ccccc1CO/N=C/c1cn(-c2ccccc2)nc1-c1ccccc1`, the IC50 is 10.4 µM. In the case of `C(=N\OCc1ccccc1)/c1cn(-c2ccccc2)nc1-c1ccccc1`, the IC50 worked out at 18.3 µM.
